Counter-ions that a name gives are not always drawn. Like-named read-outs stand apart in the source and are kept apart here.
Experiments:
[1] = tested on: Velvetleaf (ABUTH); experiment: Greenhouse post-emergence mixture trials, percent visual control; assay type: in vivo; conditions: Abutilon theophrasti, post-emergence, 504 h; for pest or weed control at 5 g/ha: Arylex 5 g ai or ae/ha alone
[2] = tested on: Common Lambsquarters (CHEAL); experiment: as above; assay type: in vivo
[3] = tested on: Corn (ZEAMX); experiment: as above; assay type: in vivo
[4] = tested on: weeds ABUTH, AMATA, AMBEL, CHEAL, ERICA; experiment: Postemergence herbicide evaluation, overall average % weed control (ABUTH, AMATA, AMBEL, CHEAL, ERICA); assay type: in vivo; conditions: post-emergence, read-out: Overall Ave % Weed Control; for pest or weed control at 280 g/ha: 280 g ae/ha
[5] = tested on: Chenopodium album (CHEAL), common lambsquarters; experiment: Postemergence herbicide evaluation, growth of Chenopodium album (CHEAL); assay type: in vivo; conditions: Chenopodium album, post-emergence; for pest or weed control at 280 g/ha: 280 g ae/ha; for pest or weed control at 560 g/ha: 560 g ae/ha
[6] = tested on: glyphosate resistant Conyza canadensis (L.) (ERICA), horseweed; experiment: Postemergence herbicide evaluation, growth of Conyza canadensis (ERICA); assay type: in vivo; conditions: Erigeron canadensis, post-emergence; for pest or weed control at 280 g/ha: 280 g ae/ha; for pest or weed control at 560 g/ha: 560 g ae/ha
[7] = tested on: Amaranthus rudis (AMATA), tall water hemp; experiment: Postemergence herbicide evaluation, growth of Amaranthus rudis (AMATA); assay type: in vivo; conditions: Amaranthus tuberculatus, post-emergence; for pest or weed control at 280 g/ha: 280 g ae/ha; for pest or weed control at 560 g/ha: 560 g ae/ha
[8] = tested on: Ambrosia artemisiifolia (AMBEL), common ragweed; experiment: Postemergence herbicide evaluation, growth of Ambrosia artemisiifolia (AMBEL); assay type: in vivo; conditions: Ambrosia artemisiifolia, post-emergence; for pest or weed control at 280 g/ha: 280 g ae/ha; for pest or weed control at 560 g/ha: 560 g ae/ha
[9] = tested on: weeds ABUTH, AMATA, AMBEL, CHEAL, ERICA; experiment: Postemergence herbicide evaluation, overall average % weed control across ABUTH, AMATA, AMBEL, CHEAL and ERICA; assay type: in vivo; conditions: post-emergence, average over five weeds, read-out: Overall Ave % Weed Control; for pest or weed control at 560 g/ha: 560 g ae/ha
[10] = Volatility of compounds measured by thermogravimetric analysis (TGA); assay type: physicochemical
[11] = tested on: Abutilon theophrasti (ABUTH), velvetleaf; experiment: Postemergence herbicide evaluation, growth of Abutilon theophrasti (ABUTH); assay type: in vivo; conditions: Abutilon theophrasti, post-emergence; for pest or weed control at 280 g/ha: 280 g ae/ha; for pest or weed control at 560 g/ha: 560 g ae/ha
[12] = 168 h, 7 DAA, read-out: Ave. CHEAL, percent reduction in plant size relative to the untreated control
[13] = 504 h, 21 DAA, percent reduction in plant size vs untreated control, read-out: Ave. CHEAL
[14] = 168 h, 7 DAA, read-out: Ave. ERICA, percent reduction in plant size relative to the untreated control
[15] = 504 h, 21 DAA, percent reduction in plant size vs untreated control, read-out: Ave. ERICA
[16] = 168 h, 7 DAA, read-out: Ave. AMATA, percent reduction in plant size relative to the untreated control
[17] = 504 h, 21 DAA, percent reduction in plant size vs untreated control, read-out: Ave. AMATA
[18] = 168 h, 7 DAA, read-out: AVE. AMBEL, percent reduction in plant size relative to the untreated control
[19] = 504 h, 21 DAA, percent reduction in plant size vs untreated control, read-out: AVE. AMBEL
[20] = 168 h, 7 DAA, read-out: AVE. ABUTH, percent reduction in plant size relative to the untreated control
[21] = 504 h, 21 DAA, percent reduction in plant size vs untreated control, read-out: AVE. ABUTH
[22] = Zea mays, post-emergence, 504 h, read-out: % Control
[23] = Chenopodium album, post-emergence, 504 h, read-out: % Control

In the case of `COC(=O)c1nc(-c2ccc(Cl)c(OC)c2F)cc(N)c1Cl` [Arylex, halauxifen-methyl, reference compound], the pest or weed control at 5 g/ha ([1]; Trial 2 Trt 19, B2 0 g ae/ha, ABUTH, 21 DAA) was 100%, the pest or weed control at 65 g/ha ([1]; Trial 2 Trt 22, B2 0 g ae/ha, Arylex 65 g ai or ae/ha alone, ABUTH, 21 DAA) was 100% and the pest or weed control at 5 g/ha ([1]; Trial Bridge 1 Trt 7, ABUTH, D10 0 g ae/ha, 21 DAA) was 100%. For the same compound, the pest or weed control at 5 g/ha ([2]; Chenopodium album, post-emergence, 504 h, Trial 2 Trt 19: B2 0 g ae/ha, Arylex 5 g ai or ae/ha alone, CHEAL, 21 DAA) was 100%, the pest or weed control at […] ([2]; Chenopodium album, post-emergence, 504 h, Trial 2 Trt 22: B2 0 g ae/ha, Arylex 6.5 g ai or ae/ha alone, CHEAL, 21 DAA) was 100% and the “% Control” value ([2]; Trial Bridge 1, CHEAL, mixing partner alone (D10 at 0 g ae/ha), Arylex 5 g ai or ae/ha, 21 DAA) was 100%. For the same compound, the plant injury at 5 g/ha ([3]; Zea mays, post-emergence, 504 h, Trial 2 Trt 19, ZEAMX, B2 0 g ae/ha, Arylex 5 g ai or ae/ha alone, 21 DAA) was 70%, the plant injury at […] ([3]; Zea mays, post-emergence, 504 h, Trial 2 Trt 22, ZEAMX, B2 0 g ae/ha, Arylex 6.5 g ai or ae/ha alone, 21 DAA) was 75% and the plant injury at 5 g/ha ([3]; Zea mays, post-emergence, 504 h, Trial Bridge 1, ZEAMX, Arylex 5 g ai or ae/ha alone (compound rate 0), 21 DAA, single replicate) was 65%.
Compound `COc1ncc(OC(=O)COc2ccc(Cl)cc2Cl)cn1` [Compound E12] has a pest or weed control at 280 g/ha ([4]; 168 h, 7 DAA) of 69.5%, a pest or weed control at 560 g/ha ([4]; 168 h, 560 g ae/ha, 7 DAA) of 73.5% and a pest or weed control at 280 g/ha ([4]; 336 h, 14 DAA) of 79.5%. For the same compound, the pest or weed control at 280 g/ha [5, 12] was 77.5%, the pest or weed control at 560 g/ha [5, 12] was 80% and the pest or weed control at 280 g/ha ([5]; 336 h, 14 DAA, read-out: Ave. CHEAL, percent reduction in plant size relative to the untreated control) was 90%. It also gave a pest or weed control at 560 g/ha ([5]; 336 h, 14 DAA, percent reduction in plant size vs untreated control, read-out: Ave. CHEAL) of 95%, a pest or weed control at 280 g/ha [5, 13] of 87.5% and a pest or weed control at 560 g/ha [5, 13] of 87.5%. The pest or weed control at 280 g/ha [6, 14] was 75%, the pest or weed control at 560 g/ha [6, 14] was 85% and the pest or weed control at 280 g/ha ([6]; 336 h, 14 DAA, read-out: Ave. ERICA, percent reduction in plant size relative to the untreated control) was 97.5%. For the same compound, the pest or weed control at 560 g/ha ([6]; 336 h, 14 DAA, percent reduction in plant size vs untreated control, read-out: Ave. ERICA) was 100%, the pest or weed control at 280 g/ha [6, 15] was 96.5% and the pest or weed control at 560 g/ha [6, 15] was 100%. It also gave a pest or weed control at 280 g/ha [7, 16] of 70%, a pest or weed control at 560 g/ha [7, 16] of 75% and a pest or weed control at 280 g/ha ([7]; 336 h, 14 DAA, read-out: Ave. AMATA, percent reduction in plant size relative to the untreated control) of 80%. The pest or weed control at 560 g/ha ([7]; 336 h, 14 DAA, percent reduction in plant size vs untreated control, read-out: Ave. AMATA) was 87.5%, the pest or weed control at 280 g/ha [7, 17] was 70% and the pest or weed control at 560 g/ha [7, 17] was 87.5%. For the same compound, the pest or weed control at 280 g/ha [8, 18] was 75%, the pest or weed control at 560 g/ha [8, 18] was 77.5% and the pest or weed control at 280 g/ha ([8]; 336 h, 14 DAA, read-out: AVE. AMBEL, percent reduction in plant size relative to the untreated control) was 70%. It also gave a pest or weed control at 560 g/ha ([8]; 336 h, 14 DAA, percent reduction in plant size vs untreated control, read-out: AVE. AMBEL) of 90%, a pest or weed control at 280 g/ha [8, 19] of 100% and a pest or weed control at 560 g/ha [8, 19] of 100%. For the same compound, the pest or weed control at 560 g/ha ([9]; 336 h, 14 DAA) was 85%, the pest or weed control at 280 g/ha ([9]; 504 h, 280 g ae/ha, 21 DAA) was 83.8% and the pest or weed control at 560 g/ha ([9]; 504 h, 21 DAA) was 87.5%. For the same compound, the “TGA Data (rate of weight loss, volatility)” value [10] was 0.04464 µg/min, the pest or weed control at 280 g/ha [11, 20] was 50% and the pest or weed control at 560 g/ha [11, 20] was 50%. For the same compound, the pest or weed control at 280 g/ha ([11]; 336 h, 14 DAA, read-out: AVE. ABUTH, percent reduction in plant size relative to the untreated control) was 60%, the pest or weed control at 560 g/ha ([11]; 336 h, 14 DAA, percent reduction in plant size vs untreated control, read-out: AVE. ABUTH) was 52.5% and the pest or weed control at 280 g/ha [11, 21] was 65%. For the same compound, the pest or weed control at 560 g/ha [11, 21] was 62.5%.
`CCOc1nc(F)cc2nc(S(=O)(=O)Nc3c(Cl)cccc3Cl)nn12` [Diclosulam] gave a pest or weed control at 25 g/ha ([1]; Trial 2 Trt 13, B2 0 g ae/ha, Diclosulam 25 g ai or ae/ha alone, ABUTH, 21 DAA) of 100%, a pest or weed control at 35 g/ha ([1]; Trial 2 Trt 16, B2 0 g ae/ha, Diclosulam 35 g ai or ae/ha alone, ABUTH, 21 DAA) of 98% and a pest or weed control at 35 g/ha ([1]; Trial Bridge 1 Trt 4, ABUTH, D10 0 g ae/ha, diclosulam 35 g ai or ae/ha alone, 21 DAA) of 100%. For the same compound, the pest or weed control at 25 g/ha ([2]; Chenopodium album, post-emergence, 504 h, Trial 2 Trt 13: B2 0 g ae/ha, Diclosulam 25 g ai or ae/ha alone, CHEAL, 21 DAA) was 40%, the “% Control” value ([3]; Trial Bridge 1, ZEAMX, diclosulam 35 g ai or ae/ha alone (compound rate 0), 21 DAA, single replicate) was 70% and the plant injury at 25 g/ha ([3]; Zea mays, post-emergence, 504 h, Trial 2 Trt 13, ZEAMX, B2 0 g ae/ha, Diclosulam 25 g ai or ae/ha alone, 21 DAA) was 80%. For the same compound, the plant injury at 35 g/ha ([3]; Zea mays, post-emergence, 504 h, Trial 2 Trt 16, ZEAMX, B2 0 g ae/ha, Diclosulam 35 g ai or ae/ha alone, 21 DAA) was 95% and the plant injury at 35 g/ha ([3]; Zea mays, post-emergence, 504 h, Trial Bridge 1, ZEAMX, diclosulam 35 g ai or ae/ha alone (compound rate 0), 21 DAA, single replicate) was 70%.
In the case of `CP(=O)(O)CCC(N)C(=O)O` (stereo not shown) [Glufosinate, 2-amino-4-(hydroxy(methyl)phosphinyl)butanoic acid ammonium salt], the pest or weed control at 200 g/ha ([1]; read-out: % Control) was 5%, the plant injury at 200 g/ha [3, 22] was 5% and the plant injury at 900 g/ha [3, 22] was 10%.
`O=C(O)CNCP(=O)(O)O` [Glyphosate, N-(phosphonomethyl) glycine, reference compound] gave a pest or weed control at 375 g/ha ([1]; read-out: % Control) of 85%, a pest or weed control at 1120 g/ha ([1]; read-out: % Control) of 100% and a pest or weed control at 1680 g/ha ([1]; read-out: % Control) of 100%. It also gave a pest or weed control at 375 g/ha [2, 23] of 50%, a pest or weed control at 1120 g/ha [2, 23] of 65% and a pest or weed control at 1680 g/ha [2, 23] of 85%. It also gave a plant injury at 375 g/ha [3, 22] of 70%.
